{
  "source": "patent US20110212047A1",
  "about": "“Polymer Therapy for the Treatment of Chronic Microvascular Diseases” (Synth Rx, Inc., priority 2007, published 2011)",
  "tested_on": "bilateral neovascular AMD with occult choroidal neovascularization",
  "assay": "Treatment of a patient with bilateral neovascular AMD with occult choroidal neovascularization",
  "assay_type": "in vivo, human",
  "conditions": "after intravitreal injection to both eyes",
  "data": [
    {"substance": "pegaptanib", "values": [
      {"measurement": "vision, left eye", "setting": "20/80 before", "value": "20/100"},
      {"measurement": "vision, right eye", "setting": "CF at six feet before", "value": "CF at six feet"}
    ]}
  ]
}
